What all share (type): cell-based
For one test, the target named is T1, alpha2B receptor (Homo sapiens, UniProt P18089).
T1 construct: expressed in transfected cells; host or cells: NIH-3T3
T1 sequence (P18089 1-450): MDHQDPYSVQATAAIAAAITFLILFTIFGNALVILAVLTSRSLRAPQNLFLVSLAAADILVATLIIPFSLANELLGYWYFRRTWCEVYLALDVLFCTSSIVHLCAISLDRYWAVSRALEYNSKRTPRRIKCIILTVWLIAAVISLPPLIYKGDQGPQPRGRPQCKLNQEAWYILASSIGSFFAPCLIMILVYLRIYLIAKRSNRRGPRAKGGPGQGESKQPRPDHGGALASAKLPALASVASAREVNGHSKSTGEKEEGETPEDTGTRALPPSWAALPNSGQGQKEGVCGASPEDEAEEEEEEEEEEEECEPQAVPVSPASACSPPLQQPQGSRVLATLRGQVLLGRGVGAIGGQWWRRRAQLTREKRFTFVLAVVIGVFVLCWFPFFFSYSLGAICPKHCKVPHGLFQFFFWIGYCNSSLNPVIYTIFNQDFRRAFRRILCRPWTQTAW
Briefly: RSAT assay, Alpha 2B. The conditions noted are these: for EC50: RSAT, transfected NIH-3T3 cells with Gq/i5, nd = not determinable at concentrations less than 10 micromolar; for Emax: read-out: Alpha 2B IA (intrinsic activity), in parentheses. As for the experimental part:
(§1) Receptor Selection and Amplification Technology (RSAT) Assay
(§2) The RSAT assay measures a receptor-mediated loss of contact inhibition that results in selective proliferation of receptor-containing cells in a mixed population of confluent cells. The increase in cell number is assessed with an appropriate transfected marker gene such as β-galactosidase, the activity of which can be easily measured in a 96-well format. Receptors that activate the G protein, Gq, elicit this response. Alpha2 receptors, which normally couple to Gi, activate the RSAT response when coexpressed with a hybrid Gq protein that has a Gi receptor recognition domain, called Gq/i5.
(§3) NIH-3T3 cells are plated at a density of 2×10^6 cells in 15 cm dishes and maintained in Dulbecco's modified Eagle's medium supplemented with 10% calf serum. One day later, cells are cotransfected by calcium phosphate precipitation with mammalian expression plasmids encoding p-SV-β-galactosidase (5-10 μg), receptor (1-2 μg) and G protein (1-2 μg). 40 μg salmon sperm DNA may also be included in the transfection mixture. Fresh media is added on the following day and 1-2 days later, cells are harvested and frozen in 50 assay aliquots. Cells are thawed and 100 μl added to 100 μl aliquots of various concentrations of drugs in triplicate in 96-well dishes. Incubations continue 72-96 hr at 37° C. After washing with phosphate-buffered saline, β-galactosidase enzyme activity is determined by adding 200 μl of the chromogenic substrate (consisting of 3.5 mM o-nitrophenyl-β-D-galactopyranoside and 0.5% nonidet P-40 in phosphate buffered saline), incubating overnight at 30° C. and measuring optical density at 420 nm. The absorbance is a measure of enzyme activity, which depends on cell number and reflects a receptor-mediated cell proliferation. The efficacy or intrinsic activity is calculated as a ratio of the maximal effect of the drug to the maximal effect of a standard full agonist for each receptor subtype. Brimonidine, also called UK14304, the chemical structure of which is shown below, is used as the standard agonist for the alpha2A, alpha2B and alpha2C receptors. The EC50 is the concentration at which the drug effect is half of its maximal effect.
(§4) EC50 values are nanomolar. ND stands for “not determinable” at concentrations less than 10 micromolar. IA stands for “intrinsic activity.”

The next test concerns the target T2, alpha2C receptor (Homo sapiens, UniProt P18825).
T2 construct: expressed in transfected cells; host or cells: NIH-3T3
T2 sequence (P18825 1-462): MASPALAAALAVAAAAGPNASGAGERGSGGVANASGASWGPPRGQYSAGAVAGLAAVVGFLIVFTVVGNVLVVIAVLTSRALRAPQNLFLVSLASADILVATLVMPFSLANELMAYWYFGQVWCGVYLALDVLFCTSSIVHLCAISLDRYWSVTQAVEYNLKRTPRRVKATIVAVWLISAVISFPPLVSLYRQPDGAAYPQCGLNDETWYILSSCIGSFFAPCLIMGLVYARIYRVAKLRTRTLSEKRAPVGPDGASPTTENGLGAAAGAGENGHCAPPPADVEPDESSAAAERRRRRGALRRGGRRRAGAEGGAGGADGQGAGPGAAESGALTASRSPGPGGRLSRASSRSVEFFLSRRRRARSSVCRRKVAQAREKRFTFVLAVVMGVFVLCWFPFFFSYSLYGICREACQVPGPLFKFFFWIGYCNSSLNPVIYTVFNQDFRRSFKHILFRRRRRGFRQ
Briefly: RSAT assay, Alpha 2C. To be noted: for EC50: RSAT, transfected NIH-3T3 cells with Gq/i5, nd = not determinable at concentrations less than 10 micromolar; for Emax: read-out: Alpha 2C IA (intrinsic activity), in parentheses. As to the method: as §1, §2, §3, §4

In another test the target is T3, alpha2A receptor (Homo sapiens, UniProt P08913).
T3 construct: expressed in transfected cells; host or cells: NIH-3T3
T3 sequence (P08913 1-465): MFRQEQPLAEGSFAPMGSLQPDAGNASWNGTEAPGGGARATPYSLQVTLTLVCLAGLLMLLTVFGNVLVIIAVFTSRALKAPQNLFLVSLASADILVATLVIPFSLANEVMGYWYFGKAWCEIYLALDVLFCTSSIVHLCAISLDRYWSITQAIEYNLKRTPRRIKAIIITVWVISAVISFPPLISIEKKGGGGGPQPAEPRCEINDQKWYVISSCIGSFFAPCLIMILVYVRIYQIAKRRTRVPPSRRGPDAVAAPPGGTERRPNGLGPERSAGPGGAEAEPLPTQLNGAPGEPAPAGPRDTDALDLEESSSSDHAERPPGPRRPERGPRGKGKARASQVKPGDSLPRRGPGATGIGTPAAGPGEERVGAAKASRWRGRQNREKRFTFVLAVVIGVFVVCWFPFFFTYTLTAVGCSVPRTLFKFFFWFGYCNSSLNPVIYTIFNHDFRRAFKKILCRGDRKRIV
The experiment in a line: RSAT assay, Alpha 2A. To be noted: for Emax: read-out: Alpha 2A IA (intrinsic activity), in parentheses. As to the method:
as §1, §2, §3, §4

Structures are written as SMILES.

In general, EC50 refers to the concentration giving half of the maximal effect. A higher EC50 goes with weaker potency.

In the case of `c1ccc2c(c1)CCC[C@@H]2NC1=NCCN1` [compound 323], the EC50 on alpha2B receptor came to 0.049 µM; at alpha2C receptor, 0.308 µM. In addition, the Emax on alpha2B receptor amounted to 102%; at alpha2C receptor it was 42%; at alpha2A receptor it was 12%.

For `Cc1cc(C)c2c(c1)C(NC1=NCCN1)CCC2` (stereo not drawn) [compound 904, (4,5-Dihydro-1H-imidazol-2-yl)-(5,7-dimethyl-1,2,3,4-tetrahydro-naphthalen-1-yl)-amine], the EC50 amounted to 0.068 µM on alpha2B receptor and 1.62 µM at alpha2A receptor (RSAT, transfected NIH-3T3 cells with Gq/i5, nd = not determinable at concentrations less than 10 micromolar). Also, the Emax at alpha2B receptor was determined as 80%; on alpha2C receptor it was 4%; at alpha2A receptor, 35%.

Take `c1ccc2c(c1)CCCC2NC1=NCCN1` (stereo not drawn) [compound 639, (4,5-Dihydro-1H-imidazol-2-yl)-(1,2,3,4-tetrahydro-naphthalen-1-yl)amine]: the half-maximal effective concentration (EC50) came to 0.037 µM at alpha2B receptor and 0.179 µM on alpha2C receptor. Besides, the Emax came to 84% on alpha2B receptor, 50% on alpha2C receptor and 25% at alpha2A receptor.

These data come from patent US8815923B2, “Therapeutic compounds” (Allergan, Inc., priority 2007, dated 2014).
